Reference: PMC12669672, “Structural insights into selective and dual antagonism of EP2 and EP4 prostaglandin receptors” (The EMBO Journal, 2025)
Where “and” joins values, the source holds several entries; their conditions need not be identical. Equal values may be shown once. Entries after “also recorded” stand apart in the source; their conditions may differ. Read-outs that look alike come from different tables or passages of the source.

Experiments:
Test in all cases: GloSensor cAMP assay, antagonism of PGE2-induced cAMP
Assay type in all cases: cell-based
EP4 S319A = target: T1, EP4 S319A (Homo sapiens, UniProt P35408, S319A); conditions: for cAMP activity (∆pIC50 from EP4 WT): Grapiprant, S319A; for ΔpIC50: PGE2 0.5 nM, pIC50 mutant - pIC50 WT, mean
T1 construct: The full-length EP2 or EP4 was cloned into the pcDNA3.1 vector (Invitrogen), incorporating an N-terminal FLAG tag; expressed in transfected cells; host or cells: AD293
T1 sequence (P35408 whole entry S319A): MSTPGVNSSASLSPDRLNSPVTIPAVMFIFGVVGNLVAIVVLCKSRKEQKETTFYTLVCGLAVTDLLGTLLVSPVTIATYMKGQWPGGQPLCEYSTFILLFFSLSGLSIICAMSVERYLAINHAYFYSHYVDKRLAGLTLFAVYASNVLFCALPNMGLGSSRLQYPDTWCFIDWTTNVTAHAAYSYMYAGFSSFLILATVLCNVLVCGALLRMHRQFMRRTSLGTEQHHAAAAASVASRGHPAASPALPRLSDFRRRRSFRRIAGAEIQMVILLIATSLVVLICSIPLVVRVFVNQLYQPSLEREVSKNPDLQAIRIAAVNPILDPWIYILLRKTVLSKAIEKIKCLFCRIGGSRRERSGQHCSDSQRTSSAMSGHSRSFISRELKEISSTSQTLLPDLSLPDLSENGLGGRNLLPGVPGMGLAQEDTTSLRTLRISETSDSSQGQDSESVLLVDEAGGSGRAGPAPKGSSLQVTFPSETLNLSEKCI
Procedure: (§1) The full-length EP2 or EP4 was cloned into the pcDNA3.1 vector (Invitrogen), incorporating an N-terminal FLAG tag. AD293 cells were seeded in six-well plates containing DMEM supplemented with 10% dialyzed FBS 1 day prior to transfection. Following overnight growth, cells were transfected with a 1:1 ratio of receptor construct and GloSensor22F cAMP biosensor (Promega) plasmids.
(§2) Twenty-four hours post-transfection, the cells were transferred to CO2-independent media containing 2% GloSensor cAMP Reagent (Promega) and distributed into 384-well assay plates at a density of 4000 cells per well in 10 μL. […] The plates were then incubated at 37 °C for an additional hour before luminescence measurements were taken using an EnVision plate reader.
(§3) Data analysis was performed using GraphPad Prism software v8.0.1. A nonlinear regression analysis, employing a sigmoidal dose–response model, was conducted to determine the Emax values and half-maximum inhibitory concentrations (IC50) for each compound tested.

EP4 V320A = target: T2, EP4 V320A (Homo sapiens, UniProt P35408, V320A); conditions: for ΔpIC50: PGE2 0.5 nM, pIC50 mutant - pIC50 WT, mean
T2 construct: The full-length EP2 or EP4 was cloned into the pcDNA3.1 vector (Invitrogen), incorporating an N-terminal FLAG tag; expressed in transfected cells; host or cells: AD293
T2 sequence (P35408 whole entry V320A): as the sequence (P35408 whole entry S319A) above, with A319S, V320A counted along it
Procedure: as §1, §2, §3

EP4 WT = target: T3, EP4 WT (Homo sapiens, UniProt P35408); conditions: for remaining activity at 10 µM / remaining activity at 1 µM / remaining activity at 0.1 µM / remaining activity at 0.01 µM / remaining activity at 0.001 µM / remaining activity at 0.0001 µM / remaining activity at 10 pM / remaining activity at 1 pM: 1 h; for remaining activity at 0.1 µM: Grapiprant log([M]) -7
T3 construct: The full-length EP2 or EP4 was cloned into the pcDNA3.1 vector; FLAG (N); expressed in transfected cells; host or cells: AD293 cells
T3 sequence (P35408 whole entry): as the sequence (P35408 whole entry S319A) above, with A319S counted along it
Procedure: as §1, §2, §3

EP4 V72A = target: T4, EP4 V72A (Homo sapiens, UniProt P35408, V72A); conditions: for cAMP activity (∆pIC50 from EP4 WT): Grapiprant, V72A; for ΔpIC50: PGE2 0.5 nM, pIC50 mutant - pIC50 WT, mean
T4 construct: The full-length EP2 or EP4 was cloned into the pcDNA3.1 vector; FLAG (N); expressed in transfected cells; host or cells: AD293 cells
T4 sequence (P35408 whole entry V72A): as the sequence (P35408 whole entry S319A) above, with V72A, A319S counted along it
Procedure: as §1, §2, §3

EP2 WT = EP2 WT (Homo sapiens, UniProt P43116); parameters: The full-length EP2 or EP4 was cloned into the pcDNA3.1 vector; FLAG (N); expressed in transfected cells; host or cells: AD293 cells; conditions: 1 h, single experiments 1st-3rd, Fig. S1A
Chain of EP2 WT (P43116 whole entry): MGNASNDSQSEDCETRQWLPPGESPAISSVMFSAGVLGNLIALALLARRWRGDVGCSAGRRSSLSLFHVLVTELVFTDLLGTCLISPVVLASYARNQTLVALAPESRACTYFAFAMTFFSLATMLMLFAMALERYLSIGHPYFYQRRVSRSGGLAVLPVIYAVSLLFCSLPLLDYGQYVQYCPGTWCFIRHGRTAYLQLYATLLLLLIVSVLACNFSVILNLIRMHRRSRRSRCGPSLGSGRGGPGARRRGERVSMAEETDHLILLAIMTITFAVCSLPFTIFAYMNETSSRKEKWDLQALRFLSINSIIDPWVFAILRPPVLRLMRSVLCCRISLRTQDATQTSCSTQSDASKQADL
Procedure: as §1, §2, §3

[1] = 1 h, Grapiprant log([M]) -7, read-out: % cAMP activity (normalized to WT)
[2] = 1 h, Grapiprant log([M]) -8, read-out: % cAMP activity (normalized to WT)
[3] = 1 h, Grapiprant log([M]) -9, read-out: % cAMP activity (normalized to WT)
[4] = 1 h, Grapiprant log([M]) -10, read-out: % cAMP activity (normalized to WT)
[5] = 1 h, Grapiprant log([M]) -11, read-out: % cAMP activity (normalized to WT)
[6] = 1 h, Grapiprant log([M]) -12, read-out: % cAMP activity (normalized to WT)

IC50 (EP4 S319A): 186 nM
remaining activity at 10 µM (EP4 S319A; 1 h, Grapiprant log([M]) -5, read-out: % cAMP activity (normalized to WT)): 3.59%
remaining activity at 1 µM (EP4 S319A; 1 h, Grapiprant log([M]) -6, read-out: % cAMP activity (normalized to WT)): 3.85%
remaining activity at 0.1 µM (EP4 S319A; [1]): 22.9%
remaining activity at 0.01 µM (EP4 S319A; [2]): 31.9%
remaining activity at 0.001 µM (EP4 S319A; [3]): 32.1%
remaining activity at 0.0001 µM (EP4 S319A; [4]): 27.9%
remaining activity at 10 pM (EP4 S319A; [5]): 33%
remaining activity at 1 pM (EP4 S319A; [6]): 28.4%
cAMP activity (∆pIC50 from EP4 WT) (EP4 S319A; Mean): -0.645
cAMP activity (∆pIC50 from EP4 WT) (EP4 S319A; single experiments 1st-3rd): -0.523 and -0.642 and -0.769
ΔpIC50 (EP4 S319A): -0.64 ± 0.07
ΔpIC50 (EP4 S319A; listed as grapiprant): reduced the potency
IC50 (EP4 V320A): 339 nM
remaining activity at 0.0001 µM (EP4 V320A; [4]): 39.6%
cAMP activity (∆pIC50 from EP4 WT) (EP4 V320A; Grapiprant, V320A, Mean): -0.775
ΔpIC50 (EP4 V320A): -0.78 ± 0.12
ΔpIC50 (EP4 V320A; listed as grapiprant): reduced the potency
IC50 (EP4 WT): 35.5 nM
remaining activity at 10 µM (EP4 WT; Grapiprant log([M]) -5, read-out: % cAMP activity (normalized to WT)): 2.75%
remaining activity at 1 µM (EP4 WT; Grapiprant log([M]) -6, read-out: % cAMP activity (normalized to WT)): 3.71%
remaining activity at 0.1 µM (EP4 WT; read-out: % cAMP activity (normalized to WT)): 21%
remaining activity at 0.1 µM (EP4 WT; single experiments 1st-3rd, Fig. S7C, read-out: % cAMP activity (normalized to WT)): 30.1%
remaining activity at 0.01 µM (EP4 WT; Grapiprant log([M]) -8, read-out: % cAMP activity (normalized to WT)): 83.1%
remaining activity at 0.01 µM (EP4 WT; Grapiprant log([M]) -8, single experiments 1st-3rd, Fig. S7C, read-out: % cAMP activity (normalized to WT)): 88.1%
remaining activity at 0.001 µM (EP4 WT; Grapiprant log([M]) -9, read-out: % cAMP activity (normalized to WT)): 96.3%
remaining activity at 0.0001 µM (EP4 WT; Grapiprant log([M]) -10, read-out: % cAMP activity (normalized to WT)): 90.2%
remaining activity at 0.0001 µM (EP4 WT; Grapiprant log([M]) -10, single experiments 1st-3rd, Fig. S7C, read-out: % cAMP activity (normalized to WT)): 96.7%
remaining activity at 10 pM (EP4 WT; Grapiprant log([M]) -11, read-out: % cAMP activity (normalized to WT)): 97.9%
remaining activity at 10 pM (EP4 WT; Grapiprant log([M]) -11, single experiments 1st-3rd, Fig. S7C, read-out: % cAMP activity (normalized to WT)): 101%
remaining activity at 1 pM (EP4 WT; Grapiprant log([M]) -12, read-out: % cAMP activity (normalized to WT)): 103%
remaining activity at 1 pM (EP4 WT; Grapiprant log([M]) -12, single experiments 1st-3rd, Fig. S7C, read-out: % cAMP activity (normalized to WT)): 93.3%
remaining activity at 10 µM (EP4 WT; read-out: % cAMP activity EP4 (normalized to Grapiprant), ligand log([M]) -5, single experiments 1st-3rd, Fig. S1A): 2.69%
remaining activity at 1 µM (EP4 WT; read-out: % cAMP activity EP4 (normalized to Grapiprant), ligand log([M]) -6, single experiments 1st-3rd, Fig. S1A): 5.1%
remaining activity at 0.01 µM (EP4 WT; read-out: % cAMP activity EP4 (normalized to Grapiprant), ligand log([M]) -8, single experiments 1st-3rd, Fig. S1A): 94.2%
remaining activity at 0.001 µM (EP4 WT; read-out: % cAMP activity EP4 (normalized to Grapiprant), ligand log([M]) -9, single experiments 1st-3rd, Fig. S1A): 97%
remaining activity at 0.0001 µM (EP4 WT; read-out: % cAMP activity EP4 (normalized to Grapiprant), ligand log([M]) -10, single experiments 1st-3rd, Fig. S1A): 100%
remaining activity at 10 pM (EP4 WT; read-out: % cAMP activity EP4 (normalized to Grapiprant), ligand log([M]) -11, single experiments 1st-3rd, Fig. S1A): 93.5%
remaining activity at 1 pM (EP4 WT; read-out: % cAMP activity EP4 (normalized to Grapiprant), ligand log([M]) -12, single experiments 1st-3rd, Fig. S1A): 102%
cAMP activity (∆pIC50 from EP4 WT) (EP4 WT; Grapiprant, WT, single experiments 1st-3rd): 0.1372 and 0.1162 and -0.1508
IC50 (EP4 V72A): 110 nM
remaining activity at 0.1 µM (EP4 V72A; [1]): 25.9%
remaining activity at 0.01 µM (EP4 V72A; [2]): 35.8%
remaining activity at 0.001 µM (EP4 V72A; [3]): 45%
remaining activity at 0.0001 µM (EP4 V72A; [4]): 46.7%
remaining activity at 10 pM (EP4 V72A; [5]): 54.1%
remaining activity at 1 pM (EP4 V72A; [6]): 41%
cAMP activity (∆pIC50 from EP4 WT) (EP4 V72A; Mean): -0.294
cAMP activity (∆pIC50 from EP4 WT) (EP4 V72A; single experiments 1st-3rd): -0.217 and -0.413 and -0.252
ΔpIC50 (EP4 V72A): -0.29 ± 0.06
ΔpIC50 (EP4 V72A; listed as grapiprant): reduced the potency
remaining activity at 10 µM (EP2 WT; read-out: % cAMP activity on EP2 (normalized to PF-04418948), ligand log([M]) -5): 90.7%
remaining activity at 1 µM (EP2 WT; read-out: % cAMP activity on EP2 (normalized to PF-04418948), ligand log([M]) -6): 105%
remaining activity at 0.1 µM (EP2 WT; read-out: % cAMP activity on EP2 (normalized to PF-04418948), ligand log([M]) -7): 107%
remaining activity at 0.01 µM (EP2 WT; read-out: % cAMP activity on EP2 (normalized to PF-04418948), ligand log([M]) -8): 113%
remaining activity at 0.001 µM (EP2 WT; read-out: % cAMP activity on EP2 (normalized to PF-04418948), ligand log([M]) -9): 115%
remaining activity at 0.0001 µM (EP2 WT; read-out: % cAMP activity on EP2 (normalized to PF-04418948), ligand log([M]) -10): 114%
remaining activity at 10 pM (EP2 WT; read-out: % cAMP activity on EP2 (normalized to PF-04418948), ligand log([M]) -11): 120%
remaining activity at 1 pM (EP2 WT; read-out: % cAMP activity on EP2 (normalized to PF-04418948), ligand log([M]) -12): 107%
SMILES: CCc1nc2c(C)nc(C)cc2n1-c1ccc(CCNC(=O)NS(=O)(=O)c2ccc(C)cc2)cc1 [Grapiprant]
antagonism profile EP4 versus EP2 (in words) (EP4 WT; cAMP accumulation assay upon PGE2 stimulation, Appendix Fig. S1A): selective antagonists of EP2 and EP4, respectively; also recorded: strong selectivity
